{
  "source": "patent US20190231841A1",
  "about": "“CENCHRUS CILIARIS L. AS AN ANTICANCER AGENT” (KING SAUD UNIVERSITY, priority 2018, published 2019)",
  "format_in_all_cases": "cell-based",
  "key": {"[1]": {"system": "HepG-2 (Hepatocellular carcinoma)", "assay": "MTT cytotoxicity assay, HepG-2", "conditions": "Homo sapiens, HepG2, 24 h incubation", "method": "(§1) The cell lines A-549 (Lung carcinoma), CACO (Colorectal carcinoma), HCT-116 (Colon carcinoma), Hela (Cervical carcinoma), HepG-2 (Hepatocellular carcinoma), and MCF-7 (Breast carcinoma) were obtained from the Regional Center for Mycology and Biotechnology, Al-Azhar University, Cairo, Egypt.\n(§2) The antitumor assay was carried out on the above cell lines as published by A Ooi et al., ‘A Guide to Transient Expression of Membrane Proteins in HEK-293 Cells for Functional Characterization”, Front. Physiol. 7:300, published online 19 Jul. 2016, for all of the extracts which have been obtained in section above (A, R, AL, APC, RPC, APB, RPB, AR &RR). Briefly, the cell lines were suspended in medium at a concentration of 5×10^4 cell/well in Corning® 96-well tissue culture plates and then incubated for 24 hr. The tested extracts were then added into 96-well plates (six replicates) to achieve seven concentrations for each extract. […] After incubation for 24 h, the numbers of viable cells were determined by the MTT assay method. […] Then, the optical density was measured at 590 nm with the microplate reader to determine the number of viable cells. The percentage of viability was calculated as: (ODt/ODc)×100%, where ODt is the mean optical density of wells treated with the tested sample and ODc is the mean optical density of untreated cells. […]"}, "[2]": {"system": "HCT-116 (Colon carcinoma)", "assay": "MTT cytotoxicity assay, HCT-116", "conditions": "Homo sapiens, 24 h incubation", "method": "as §1, §2"}, "A-549 (Lung carcinoma)": {"system": "A-549 (Lung carcinoma)", "assay": "MTT cytotoxicity assay, A-549", "conditions": "Homo sapiens, A549, 24 h, 24 h incubation", "method": "as §1, §2"}, "MCF-7 (Breast carcinoma)": {"system": "MCF-7 (Breast carcinoma)", "assay": "MTT cytotoxicity assay, MCF-7", "conditions": "Homo sapiens, MCF7, 24 h incubation", "method": "as §1, §2"}, "[3]": {"system": "CACO (Colorectal carcinoma)", "assay": "MTT cytotoxicity assay, CACO", "conditions": "24 h incubation", "method": "as §1, §2"}},
  "note": "Counter-ions that a name gives are not always drawn.",
  "data": [
    {"smiles": "CC[C@]1(O)C[C@@H]2CN(CCc3c([nH]c4ccccc34)[C@@](C(=O)OC)(c3cc4c(cc3OC)N(C)[C@H]3[C@@](O)(C(=O)OC)[C@H](OC(C)=O)[C@]5(CC)C=CCN6CC[C@]43[C@@H]65)C2)C1", "note": "[Vinblastine sulfate]", "values": [
      {"measurement": "IC50", "setting": "[1]", "result": "2.93 ± 0.3", "unit": "µg/mL"},
      {"measurement": "IC50", "setting": "[2]", "result": "3.5 ± 0.2", "unit": "µg/mL"},
      {"measurement": "IC50", "setting": "A-549 (Lung carcinoma)", "result": "30.3 ± 1.4", "unit": "µg/mL"},
      {"measurement": "IC50", "setting": "MCF-7 (Breast carcinoma)", "result": "5.9 ± 0.4", "unit": "µg/mL"},
      {"measurement": "IC50", "setting": "[3]; 24 h", "result": "24.6 ± 0.7", "unit": "µg/mL"},
      {"measurement": "IC50 CACO (Colorectal carcinoma)", "setting": "[3]", "result": "30.3 ± 1.4", "unit": "µg/mL"}
    ]}
  ]
}
